Consider 3 molecules from paper PMC4841544, “Molecular Basis of Ligand-Dependent Regulation of NadR, the Transcriptional Repressor of Meningococcal Virulence Factor NadA” (PLoS Pathogens, 2016).

Assay type in all cases: binding
In assay [1] the target is T1, NadR (Neisseria adhesin A Regulator) (Neisseria meningitidis, UniProt Q7DD70). In words: SPR steady-state; DSC (ΔTm […] °C). Also on record: gene NMB1843; NadR residues M1-S146, His-tag removed by thrombin (149 residues).
For assay [2], the target named is T1, NadR (Neisseria adhesin A Regulator). Nature of the assay: SPR steady-state; DSC (ΔTm […] °C). The arrangement: gene NMB1843; NadR residues M1-S146, His-tag removed by thrombin (149 residues). The source holds these as a separate data set.
Assay [3] has the same target. In words: SPR steady-state; DSC; 1H-15N TROSY-HSQC NMR. Also on record: gene NMB1843; NadR residues M1-S146, His-tag removed by thrombin (149 residues); SeMet derivative for the crystal.

T1 sequence (Q7DD70 entry or part of it): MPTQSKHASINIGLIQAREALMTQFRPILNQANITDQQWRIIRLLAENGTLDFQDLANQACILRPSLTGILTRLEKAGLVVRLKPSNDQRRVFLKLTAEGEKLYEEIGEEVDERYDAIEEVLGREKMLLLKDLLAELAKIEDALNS

A word on the Kd: it is a measure of binding affinity in units of concentration. Low readings indicate higher affinity, high ones lower affinity. `O=C(O)Cc1ccc(O)c(Cl)c1` [3Cl,4-HPA]: in assay [1], binding was characterised by a dissociation constant (Kd) of 1100 ± 100 µM.
In assay [2], `O=C(O)Cc1cccc(O)c1` [3-HPA] came in with a Kd of 2700 ± 100 µM.
In turn, `O=C(O)Cc1ccc(O)cc1` [4-HPA, 4-hydroxyphenylacetate] registered a Kd in assay [3] of 1500 ± 100 µM.
